Experimental data reported in patent publication US7060731B2, “Use of amines” (Amersham Health AS, priority 2000, dated 2006).

Legend:
Format in all cases: biochemical
[1] = test system: complement system (early pathway activation, C3a-desArg); experiment: In vitro complement activation by X-ray contrast agents in human serum, C3a-desArg EIA; settings: for inhibition of complement activation induced by Visipaque: substance added to Visipaque, human serum
Experimental: A method for investigation of the ability of different agents to activate the complement system in vitro is described. Briefly, human serum is exposed to the different agents for 30 min at 37Ec. The activation is stopped by placing the samples in an ice-water bath and immediately add cold EDTA-solution at a final concentration of 15 mM. The latter stops further activation by chelating calcium and magnesium ions. The degree of activation is subsequently determined by using commercially available enzyme immunoassays (EIA) for determination of specific complement activation products. In these experiments C3a-desArg or SC5b-9 have been used, representing early pathway activation and terminal pathway activation respectively. The concentrations of contrast agents used in vitro in these experiments is based on the following assumptions: One of the applied clinical doses (ACD) used in vivo is 150 mL Visipaque at a concentration of 320 mg I/mL. For a person of 70 kg with a blood volume of about 5.5 L and a plasma fraction of about 3.5 L, the ACD corresponds to 13.7 mg I/mL serum in the test system. Five times this concentration (68.5 mgI/mL serum) was used for all contrast agents to cover maximum blood concentration immediately after bolus injection of the substances. Hexabrix and Visipaque with concentrations of 320 mg I/mL and phosphate buffered saline (at an equal volume) were added to human serum. Subsequently in vitro complement activation was performed as described previously followed by the determination of C3a-desArg. […] In order to investigate the effect of meglumine on complement activation, meglumine at different concentrations were added to Visipaque and in vitro complement activation was performed followed by determination of C3a-desArg. […] An expanded concentration response experiment (tighter concentration range) was subsequently performed. Ten concentrations of meglumine ranging from 0–18% (w/w) of the iodine content in Visipaque were used. […] The effects of meglumine (39% w/w of mg I/ml) on other non-ionic x-ray contrast agents were investigated. Iopamidol, Omnipaque, Ultravist and Visipaque were added to human serum at a final concentration of 68.5 mg I/mL. Subsequently in vitro complement activation was performed, followed by determination of C3a-desArg as previously described in the section “In vitro complement activation” and in Example 1.

[2] = test system: alternative pathway of complement (Zymosan A activated, SC5b-9); experiment: In vitro complement activation by Zymosan A in human serum, SC5b-9 EIA; settings: Zymosan A 10 mg/mL serum, meglumine 390 mg/mL, 1 hour 37 C, FIG. 4
Experimental: (§1) A method for investigation of the ability of different agents to activate the complement system in vitro is described. Briefly, human serum is exposed to the different agents for 30 min at 37Ec. The activation is stopped by placing the samples in an ice-water bath and immediately add cold EDTA-solution at a final concentration of 15 mM. The latter stops further activation by chelating calcium and magnesium ions. The degree of activation is subsequently determined by using commercially available enzyme immunoassays (EIA) for determination of specific complement activation products. In these experiments C3a-desArg or SC5b-9 have been used, representing early pathway activation and terminal pathway activation respectively.
(§2) The alternative and classical pathways represent the main ways of activating the complement system. The ability of meglumine to inhibit these pathways were investigated by using well known activators, Zymosan A (alternative pathway activator) and heat aggregated IgG (classical pathway activator). Zymosan A at 10 mg/mL serum or Zymosan A added meglumine at a final concentration of 39% (w/v) (390 mg/mL) was added to human serum and incubated for 1 hour at 37^EC on a vial roller. To obtain heat aggregated IgG, rabbit IgG at 30 mg/mL was incubated for 30 min at 65EC on a vial roller. […] The samples were analysed for SC5b-9. […]

[3] = test system: classical pathway of complement (heat aggregated IgG activated, SC5b-9); experiment: In vitro complement activation by heat aggregated IgG in human serum, SC5b-9 EIA; settings: heat aggregated IgG 5 mg/mL serum, meglumine 390 mg/mL, FIG. 5
Experimental: as §1, §2

[4] = test system: coagulation system (extrinsic pathway); experiment: Prothrombin time test (commercial)
Experimental: (§3) As the body cascade systems are connected, the effects of meglumine on the coagulation system were investigated, by using commercial tests for prothrombin time (extrinsic pathway) and partial activated thromboplastin time (intrinsic pathway). Briefly, meglumine was added to the test systems at final concentrations of 4 mg/mL and 25 mg/mL. In the prothrombin time test meglumine increased the coagulation time by 20.5 and 72.7 seconds respectively. In the partial activated thromboplastin time test the coagulation time was increased by 6.2 and 117.9 seconds respectively. The control plasma heparin, supplied with the kit, increased the coagulation time by 36.4 seconds compared with normal plasma. Meglumine seems to prolong the coagulation time in a concentration dependent way, exceeding the time obtained for heparin plasma at the highest concentration used.

[5] = test system: coagulation system (intrinsic pathway); experiment: Partial activated thromboplastin time test (commercial)
Experimental: as §3

[6] = test system: alternative pathway of complement (ZAS activated); experiment: In vitro complement activation of human serum by Zymosan A (ZAS), comparison of meglumine analogues; settings: FIG. 6
Experimental: as §1
In order to investigate and compare the inhibitory effects on in vitro complement activation of other compounds with structural resemblance to meglumine (N-methyl-D-glucamine), a new study was performed. The new test substances chosen were N-methyl-mannosamine, 3-methylamino-1,2-propanediol and 2-(methylamino)ethanol.
Human serum was exposed to Zymosan A (ZAS), a strong activator of the alternative pathway of complement, at three different concentrations (5, 2 and 1 mg/mL serum). The complement activation induced by ZAS alone was compared with that obtained when adding the different test substances at two different concentrations to the ZAS-activated serum. In addition to the three chosen test substances meglumine was included for comparison.
To investigate the inhibitory effects of the test substances at a concentration corresponding to what is given of meglumine when injecting contrast agents such as Hexabrix, a concentration of 5.3 mg/mL serum was used. […] Complement activation induced by ZAS both at 2 and 1 mg/mL, was inhibited by meglumine, 3-methylamino-1,2-propanediol and 2-(methylamino)-ethanol. […] It should be noted that although the concentration of ZAS was reduced, the complement activation obtained was much higher than what would be expected in vivo. Thus meglumine, 3-methylamino-1,2-propanediol and 2-(methylamino)-ethanol seem to be very effective in controlling complement activation.

[7] = ZAS 5 mg/mL serum, test substance 390 mg/mL
[8] = ZAS 2 and 1 mg/mL serum, test substance 5.3 mg/mL serum

SMILES	inhibition of complement activation induced by Visipaque ([1]; C3a-desArg)	inhibition of in vitro complement activation induced by ZAS [6, 7]	inhibition of in vitro complement activation induced by ZAS [6, 8]	further results
CNC[C@H](O)[C@@H](O)[C@H](O)[C@H](O)CO [meglumine, N-methyl-D-glucamine]	abolished the complement activation	inhibited	inhibited	inhibition of Visipaque-induced complement activation after pH adjustment ([1]; Visipaque with meglumine (pH 11) vs adjusted with HCl to pH 7.4, FIG. 3): not due to the high pH; meglumine concentration at which an inhibitory effect was observed ([1]; meglumine 0–32.5% added to Visipaque, C3a-desArg, FIG. 1): 8–32.5 % (w/w) of the iodine content in Visipaque; inhibition of in vitro complement activation by non-ionic contrast agents (C3a-desArg) ([1]; meglumine 39% w/w of mg I/ml, Iopamidol, Omnipaque, Ultravist and Visipaque at 68.5 mg I/mL serum, FIG. 7): inhibited; lowest concentration of meglumine able to inhibit the complement activation ([1]; ten concentrations 0–18% (w/w) of iodine content in Visipaque, C3a-desArg, FIG. 2): 6 % of the iodine content; inhibition of alternative pathway activation of complement (SC5b-9) [2]: inhibited; inhibition of classical pathway activation of complement (SC5b-9) [3]: inhibited; increase of coagulation time, prothrombin time test ([4]; final concentration 4 mg/mL): 20.5 s; increase of coagulation time, prothrombin time test ([4]; final concentration 25 mg/mL): 72.7 s; increase of coagulation time, partial activated thromboplastin time test ([5]; final concentration 4 mg/mL): 6.2 s; increase of coagulation time, partial activated thromboplastin time test ([5]; final concentration 25 mg/mL): 117.9 s
CNCC(O)CO (centres unmarked) [3-methylamino-1,2-propanediol]		inhibited	inhibited	
CNCCO [2-(methylamino)-ethanol]		inhibited	inhibited	
OC[C@@H](O)[C@@H](O)[C@H](O)[C@H](O)CO [Mannitol, reference compound]	no inhibitory effects			
CN[C@@H]1C(O)O[C@H](CO)[C@@H](O)[C@@H]1O (some centres unmarked) [N-methyl-mannosamine]		inhibited	weaker inhibitory effect	
